Assay results published in patent publication US5969174A, “Competitive inhibitors of glyoxalase I and method of generating such competitive inhibitors inside tumor cells” (priority 1998, dated 1999).
“Also recorded” adds a separate entry of the source. Where two headings read alike, the source gives them in different places.

Columns and labels:
human erythrocyte GlxI = details: cited from earlier work
L1210 cells [1] = test: Cell permeability / intracellular appearance of enediol analog in L1210 cells; type: in vitro ADME, murine
Procedure: In order to understand the mechanism of intracellular delivery of the enediol analogs, suspensions of L1210 cells were separately incubated with the diacid 2 and with the corresponding diethyl ester 2(Et)2. The rate of appearance of these species in the intracellular fraction was then monitored as a function of time by reverse-phase HPLC (FIG. 4). […] After 90 minutes, the concentration of 2 decreased, possibly due to a combination of factors including (a) 10-20% cell death over the course of the experiment, (b) hydrolytic deethylation of extracellular 2(Et)2, and (c) GlxII-catalyzed decarbamoylation of intracellular 2.
To suspensions of L1210 cells (~1.5(10^6 cells/ml) in RPMI 1640 medium, containing 10% heat-inactivated fetal calf serum, gentamycin (10 μg/ml) and L-glutamate, at 37° C., were added fixed concentrations of 2a. Aliquots (1 ml) were removed from the cell suspension as a function of time, overlaid onto 0.4 ml of silicone oil (SF-1250 silicone fluids, General Electric Co., Silicone Products Division, Waterford, N.Y.) contained in an eppendorf centrifuge tube and centrifuged at 11,000×g (15 min) at 25° C. The supernatant and silicone oil were decanted from the cell pellet and residual oil removed from the inside of the centrifuge tube with a cotton swab. To the pellet was added 1 ml 70% ethanol in water and the suspension sonicated for 5 minutes. The denatured protein was sedimented by centrifugation (11,000×g, 15 min) and the clear supernatant was removed. The supernatant was brought to dryness under a stream of argon, and the resulting residue was fractionated by reverse-phase HPLC (Waters μBondapak C18, 0.78(30 cm), using a mobile phase composed of methanol:water (1:1) containing 0.25% acetic acid at a flow rate of 2 ml/min. The integrated intensity of the peak corresponding S-(N-p-chlorophenyl-N-hydroxycarbamoyl) glutathione was determined at λ=260 nm. Concentrations were extrapolated from standard curves that were linear in the range 0.1 to 4.0 nmoles (r=0.997).

Stability in human serum = type: in vitro ADME
Procedure: To 0.5 ml portions of either human serum or mouse serum, at 37° C., was added compound 2(Et)2 to an initial concentration of approximately 0.15 mM. As a function of time, 0.1 ml aliquots of the incubation mixture were transferred to separate microfuge tubes. The samples were immediately deproteinized by the addition of 70% ethanol (0.9 ml). After incubation for 30 minutes at 37° C., the protein precipitate was sedimented by centrifugation at […]. The supernatants were then fractionated by reverse-phase HPLC, as described above, and the integrated intensities of the peaks corresponding to 2(Et)2 determined. The rate constants for deethylation were calculated from the first-order rate of loss of 2(Et)2 as a function of time.
To identify a murine model suitable for in vivo testing of the GlxI inhibitors, the stability of 2(Et)2 was evaluated in human serum and in serum samples obtained from different strains of tumor-bearing mice. In human serum, 2(Et)2 undergoes slow first-order hydrolysis to a mixture of diacid and monoethyl esters, as monitored by reverse-phase HPLC (FIG. 6). For serum samples obtained from four different individuals, T1/2 =9.1±5.3 hours (n=4). […]

[2] = system: B16 melanotic melanoma cells; test: Growth inhibition, B16 melanotic melanoma cells in culture; type: cell-based, murine
Procedure: As a consequence, they are the strongest competitive inhibitors of human GlxI yet described, Table 1. […] With both cell lines there was some correlation between the Ki values of the enediol analogs and the IC50 values of the corresponding diethyl esters.
^d Sp-bromobenzylglutathione diethyl ester. Cells were incubated for
48 h in RPMI 1640/10% fetal calf serum (37° C.) in the absence and
in the presence of enzyme inhibitor. After the initial addition of
inhibitor at time zero, fresh inhibitor was added every 12 h in order to
compensate partially for the loss of inhibitor due to spontaneous
hydrolytic deethylation in the growth medium.

[3] = Stability in mouse serum/plasma; type: in vitro ADME
[4] = n-octanol/water partition coefficient
splenic lymphocytes = test: Toxicity toward nonproliferating splenic lymphocytes; type: cell-based
From the text: Conditions: See Table 1. Error bars represent standard deviations for triplicate determinations. Different symbols correspond to experiments carried out on different days.
This is illustrated for 2(Et)2 and S-p-bromobenzylglutathionediethyl ester by the dose-response curves of FIG. 3. […] Therefore, tumor cells might not be able to detoxify the inhibitors as rapidly as normal cells. In order to determine whether this could be a factor in the present study, the glyoxalase activities in both L1210 cells and splenic lymphocytes were determined. Indeed, while the GlxI activities in the two cell lines are nearly equal, the GlxII activity in L1210 cells is about 10-fold lower than that in splenic lymphocytes. The activities of GlxI and GlxII in L1210 cells were respectively 0.31±0.03 U/mg and 0.02±0.003 U/mg, while the activities in splenic lymphocytes were respectively 0.36±0.03U/mg and 0.20±0.03 U/mg.

L1210 cells [5] = test: Growth inhibition / cytotoxicity, murine leukemia L1210 cells in culture; type: cell-based; details: for IC50: L1210, 48 h; for greater potency of sulfoxide versus diethyl ester: L1210 cells
tumor cells = details: literature (5-8); cited from earlier work
[6] = system: rat adrenal pheochromocytoma PC-12 cells; details: literature (26); read-out: IC50, growth of PC-12 cells; cited from earlier work
HL60 cells [7] = details: cited from earlier work
HL60 cells [8] = details: literature (15); cited from earlier work
L1210 cells [9] = test: Cell permeability / intracellular appearance of enediol analog in L1210 cells; type: in vitro ADME, murine; remark: listed apart in the source
[10] = Acyl-interchange reaction with glutathione in a cell-free system; type: physicochemical; details: for k2, second order rate constant for acyl-interchange with glutathione: 50 mM potassium phosphate, pH 7.5, 5% ethanol, 25° C.
Procedure: In principle, an acyl-interchange reaction might serve as the basis of an improved prodrug strategy, provided that the acylating reagent diffuses rapidly across cell membranes and then reacts rapidly with intracellular glutathione to give the enediol analog. Three N-hydroxycarbamate thioethyl esters (2(a-c)) and the corresponding sulfoxides (3(a-c)) were prepared (FIG. 7) and their rates of acyl-interchange with glutathione in a cell free system evaluated (Table II). Sulfoxidation of N,N-di-n-propylcarbamate thioalkyl esters activates these species for acyl-interchange with glutathione. […] The N--OH function appears to inductively activate the sulfoxides for acyl-interchange, as the rate constant for 3a exceeds that of the corresponding N--CH3 derivative 3c by 13-fold. The products of the interchange reactions were confirmed as the corresponding enediol analogs, on the basis that their UV spectra and their migratory properties on a reverse-phase C18 column were identical with those of authentic samples of enediol analog.
Second order rate constants for the
acyl-interchange reactions between glutathione and the list thioesters
CH3 CH2 XC(O)N(Y)Z + GSG ---(k2)--> GSC(O)B(Y)Z +
Conditions: Potassium phosphate buffer (50 mM), pH 7.5, 5% ethanol, […]

Structure (SMILES): CCOC(=O)CNC(=O)[C@H](CSC(=O)N(O)c1ccc(Cl)cc1)NC(=O)CC[C@H](N)C(=O)OCC [2(Et)2, S-(N-p-chlorophenyl N-hydroxycarbamoyl) glutathione diethyl ester]
- Ki (human erythrocyte GlxI; of the unethylated species with human erythrocyte GlxI (17), read-out: Ki, competitive inhibition constant): 0.046 µM
- intracellular uptake in words (L1210 cells [1]; L1210 cells): rapid increase in intracellular [2] during the first 90 min; also recorded: linear function of extracellular [2(Et)2 ] in the range 0.01 to 1.0 mM; also recorded: Only trace amounts of the monoethyl esters and diethyl ester of 2 were found in the intracellular fractions; also recorded: high intracellular concentrations of the corresponding diacid 2
- maximum concentration of 2 inside cells versus extracellular concentration of 2(Et)2 (L1210 cells [1]; exceeds extracellular): about three-fold
- apparent first order rate constant for diffusion of diethyl ester into L1210 cells (L1210 cells [1]; in vitro, 37° C.): 0.04 min⁻¹
- first order rate constant for appearance of 2 inside L1210 cells (L1210 cells [1]; incubated in the presence of 2(Et)2): 2.2 h⁻¹
- first order rate constant for deethylation in human serum (Stability in human serum; 37° C., FIG. 6): 0.147 ± 0.015 h⁻¹
- half-life at 150 µM (Stability in human serum; human, serum, n=4, read-out: T1/2 in human serum (converted)): 9.1 ± 5.3 h
- growth inhibition / cytotoxicity in words, B16 ([2]; B16 cells in vitro): inhibited the growth
- IC50 ([2]; Mus musculus, 48 h, RPMI 1640/10% fetal calf serum, 37° C., fresh inhibitor every 12 h, mean ± SD, read-out: IC50, 50% growth inhibition, B16): 28 ± 7 µM
- half-life at 150 µM ([3]; mouse, serum, DBA/2(C57BL/6 mice, n=5, read-out: T1/2 in serum of plasma esterase-deficient mice (converted)): 3.9 ± 0.6 h
- half-life at 150 µM ([3]; mouse, serum, DBA/2, C57BL/6, NCr nu/nu and CD2 F1 mice, read-out: T1/2, deethylation in mouse serum): < 0.00833 h
- logP [4]: 0.996
- decrease in viability of splenic lymphocytes (splenic lymphocytes; 100 μM): less than 50%
- toxicity to splenic lymphocytes / selectivity in words (splenic lymphocytes; L1210 cells versus splenic lymphocytes): significantly more toxic to L1210 cells than to splenic lymphocytes
- growth inhibition / cytotoxicity in words, L1210 (L1210 cells [5]; L1210 cells in vitro): inhibited the growth
- cytotoxicity at 100 µM (L1210 cells [5]; Mus musculus, L1210, 48 h, 100 μM, read-out: killing of L1210 cells): ~100%
- IC50 (L1210 cells [5]; Mus musculus, RPMI 1640/10% fetal calf serum, 37° C., fresh inhibitor every 12 h, mean ± SD, read-out: IC50, 50% growth inhibition, L1210): 9.5 ± 3.8 µM

Structure (SMILES): CC(=O)C=O [methylglyoxal]
- inhibition of tumor cells by exogenous methylglyoxal (tumor cells): selective inhibitory activity toward rapidly proliferating tumor cells versus nonproliferating normal cells in vitro; also recorded: inhibit the growth of tumor cells in tissue culture

Structure (SMILES): CC(C)OC(=O)CNC(=O)[C@H](CSC(=O)OCC1c2ccccc2-c2ccccc21)NC(=O)CC[C@H](N)C(=O)OC(C)C [S-fluorenylmethoxycarbonyl glutathionediisopropyl ester]
- IC50 [6]: 275 µM

Structure (SMILES): N[C@@H](CCC(=O)N[C@@H](CSCc1ccc(Br)cc1)C(=O)NCC(=O)OC1CCCC1)C(=O)OC1CCCC1 [dicyclopentyl ester of S-p-bromobenzylglutathione]
- potency relative to the diethyl ester, HL60 (HL60 cells [7]; literature (14)): twice as potent as the diethyl ester
- concentration of intracellular methylglyoxal (HL60 cells [8]): increased the measured concentration of intracellular methylglyoxal

Structure (SMILES): N[C@@H](CCC(=O)N[C@@H](CSC(=O)N(O)c1ccc(Cl)cc1)C(=O)NCC(=O)O)C(=O)O [Compound 2, S-(N-p-chlorophenyl N-hydroxycarbamoyl)glutathione]
- Ki (human erythrocyte GlxI; FIG. 8, read-out: Ki, tight-binding competitive inhibitor of human glyoxalase I): 0.046 µM
- intracellular uptake in words (L1210 cells [1]; L1210 cells): no significant time-dependent increase in intracellular [2]
- logP [4]: < -2

Structure (SMILES): CC[S+]([O-])C(=O)N(O)c1ccc(Cl)cc1 (stereo not drawn) [Compound 3a, S-(N-Hydroxy-N-p-chlorophenylcarbamoyl)ethyl sulfoxide]
- apparent first order rate constant for appearance of enediol analog inside the cells on incubation with sulfoxide (L1210 cells [1]): 1.41±0.03 min^-1
- intracellular uptake in words (L1210 cells [1]): rapid increase in the intracellular concentration of the corresponding enediol analog
- maximum intracellular concentration of inhibitor versus extracellular concentration of sulfoxide (L1210 cells [1]): about 10 -fold
- rate of influx of sulfoxide relative to diethyl ester 1(Et)2 (L1210 cells [1]): 35 -fold
- time to maximum intracellular concentration of inhibitor (L1210 cells [1]): about 17 minutes
- reduction of intracellular glutathione concentration (L1210 cells [9]): less than 1%
- rate constant relative to thioester 2a [10]: exceed by several-fold that with the thioester 2 a
- k2, second order rate constant for acyl-interchange with glutathione [10]: 30.7 ± 1.2 M⁻¹ s⁻¹
- second order rate constant for acyl-interchange reaction ([10]; 100 mM potassium phosphate, 5% ethanol, pH 7.5, 25° C.): 30.7 M⁻¹ s⁻¹
- rate constant relative to N--CH3 derivative 3c ([10]; exceeds): 13 -fold
- first order rate constant for loss of sulfoxide from serum ([3]; DBA/2 mice, n=3): 0.06 ± 0.01 min⁻¹
- half-life ([3]; mouse, serum, DBA/2 mice, n=3, read-out: T1/2 of sulfoxide in serum): 0.217 ± 0.0333 h
- greater potency of sulfoxide versus diethyl ester (L1210 cells [5]): 10 -fold
- greater potency of sulfoxide versus diethyl ester (L1210 cells [5]; listed as S-(N-p-chlorophenyl-N-hydroxycarbamoyl)ethylsulfoxide): about 10 -fold
- IC50 (L1210 cells [5]; Mus musculus, fresh drug every 12 h, read-out: IC50 toward L1210 cells, sulfoxide): 0.8 ± 0.5 µM

Structure (SMILES): C[C@@H](O)C(=O)SC[C@H](NC(=O)CC[C@H](N)C(=O)O)C(=O)NCC(=O)O [S-D-lactoylglutathione]
- growth of HL60 cells (HL60 cells [7]; literature (25)): inhibits the growth of HL60 cells in culture

Structure (SMILES): N[C@@H](CCC(=O)N[C@@H](CSCc1ccc(Br)cc1)C(=O)NCC(=O)O)C(=O)O [S-p-bromobenzylglutathione]
- effect on human leukemia HL60 cells (HL60 cells [7]; literature): both cytostatic and cytotoxic to these cells

Structure (SMILES): CC[S+]([O-])C(=O)N(C)O (stereo not shown) [Compound 3b]
- rate constant relative to thioester 2a [10]: exceed by several-fold that with the thioester 2 a
- k2, second order rate constant for acyl-interchange with glutathione [10]: 9.83 ± 0.33 M⁻¹ s⁻¹
